Laboratory results published in patent US20230141101A1, “PDE4 INHIBITOR COMPOUND AND MEDICAL USE THEREOF” (Suzhou Longbotai Pharmaceuticals Co., Ltd., priority 2020, published 2023).

Assays:
Assay type in all cases: biochemical
PDE4A1A = biological target: T1, PDE4A1A (Homo sapiens, UniProt P27815); test: PDE4 inhibitory activity assay (FAM-cAMP enzymatic reaction), PDE4A1A; conditions: for inhibitory activity against PDE4A1A compared with Apremilast and WX011: compared with Apremilast and Example 11 of WO2018036470 (WX011)
T1 construct: purchased BPS 60040
T1 sequence (P27815 1-647 isoform P27815-4): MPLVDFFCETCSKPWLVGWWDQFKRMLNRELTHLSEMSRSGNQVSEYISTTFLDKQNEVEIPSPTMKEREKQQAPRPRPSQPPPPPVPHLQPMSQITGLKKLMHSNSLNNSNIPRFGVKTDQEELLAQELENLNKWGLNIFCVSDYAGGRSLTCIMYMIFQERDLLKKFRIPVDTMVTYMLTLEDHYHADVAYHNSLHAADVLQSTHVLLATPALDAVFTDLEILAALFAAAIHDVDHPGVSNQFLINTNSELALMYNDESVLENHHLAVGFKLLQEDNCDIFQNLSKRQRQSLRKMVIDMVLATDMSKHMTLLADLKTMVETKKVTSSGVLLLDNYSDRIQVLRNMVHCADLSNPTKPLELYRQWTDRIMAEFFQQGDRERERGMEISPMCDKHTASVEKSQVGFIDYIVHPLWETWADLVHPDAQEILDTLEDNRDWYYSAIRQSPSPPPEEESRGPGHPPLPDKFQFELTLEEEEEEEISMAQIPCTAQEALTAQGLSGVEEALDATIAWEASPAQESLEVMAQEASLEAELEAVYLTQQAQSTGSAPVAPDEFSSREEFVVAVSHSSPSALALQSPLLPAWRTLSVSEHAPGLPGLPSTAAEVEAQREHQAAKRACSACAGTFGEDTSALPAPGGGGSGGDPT
Procedure: (§1) The compounds of the present disclosure were tested for their inhibitory activity (IC50 value) against PDE4A1A, PDE4B1, and PDE4D2.
(§2) Positive compound: Trequinsin (Sigma, Cat No. T20S7).
(§3) Instrument: Wallac Victor Muti-lable counter (Pekin Elmer) Steps of assay:
(§4) PDE enzymatic reaction; • 1) PDE was dissolved in 1× reaction solution to prepare 2× enzyme solution; • 2) FAM-cAMP was dissolved in 1× reaction solution to prepare 2× substrate solution; • 3) Corresponding volume of the compound in DMSO was transferred to the reaction plate through Echo 550; • 4) 2× enzyme solution was added into the corresponding wells of the reaction plate and incubated with the compound solution for 15 minutes at room temperature; • 5) 2× substrate solution was added into the corresponding well of the reaction plate to initiate the reaction; • 6) After the reaction plate was incubated at room temperature for 30 min, the reaction was terminated by adding reaction stopping solution. The reaction plate was incubated at room temperature for another 60 minutes;
(§5) Inhibition rates were calculated with Excel; and IC50 for each compound was calculated with Graphpad prism.

PDE4B1 = biological target: T2, PDE4B1 (Homo sapiens, UniProt Q07343); test: PDE4 inhibitory activity assay (FAM-cAMP enzymatic reaction), PDE4B1; conditions: for inhibitory activity against PDE4B1 compared with Apremilast and WX011: compared with Apremilast and Example 11 of WO2018036470 (WX011)
T2 construct: purchased BPS 60041
T2 sequence (Q07343 whole entry): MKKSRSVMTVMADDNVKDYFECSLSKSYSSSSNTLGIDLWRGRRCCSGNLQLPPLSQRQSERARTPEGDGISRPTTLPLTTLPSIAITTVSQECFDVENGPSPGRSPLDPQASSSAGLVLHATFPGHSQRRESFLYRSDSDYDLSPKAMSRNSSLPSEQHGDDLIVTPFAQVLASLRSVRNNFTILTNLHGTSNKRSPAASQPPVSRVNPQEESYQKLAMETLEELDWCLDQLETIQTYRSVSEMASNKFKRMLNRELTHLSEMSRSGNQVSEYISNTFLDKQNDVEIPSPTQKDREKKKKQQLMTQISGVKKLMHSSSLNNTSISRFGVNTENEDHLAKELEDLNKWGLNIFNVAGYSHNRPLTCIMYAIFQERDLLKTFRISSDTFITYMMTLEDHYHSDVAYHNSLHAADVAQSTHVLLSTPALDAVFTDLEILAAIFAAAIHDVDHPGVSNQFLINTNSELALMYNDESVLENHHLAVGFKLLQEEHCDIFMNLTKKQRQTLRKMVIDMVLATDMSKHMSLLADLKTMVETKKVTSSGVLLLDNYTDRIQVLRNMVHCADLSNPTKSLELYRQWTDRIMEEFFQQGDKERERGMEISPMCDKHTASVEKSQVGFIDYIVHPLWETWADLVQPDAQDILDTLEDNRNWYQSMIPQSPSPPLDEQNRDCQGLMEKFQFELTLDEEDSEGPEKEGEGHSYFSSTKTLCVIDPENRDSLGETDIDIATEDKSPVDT
Procedure: as §1, §2, §3, §4, §5

PDE4D2 = PDE4D2 (Homo sapiens, UniProt Q08499); test: PDE4 inhibitory activity assay (FAM-cAMP enzymatic reaction), PDE4D2; conditions: for inhibitory activity against PDE4D2 compared with Apremilast and WX011: compared with Apremilast and Example 11 of WO2018036470 (WX011)
PDE4D2, sequence (Q08499 303-809): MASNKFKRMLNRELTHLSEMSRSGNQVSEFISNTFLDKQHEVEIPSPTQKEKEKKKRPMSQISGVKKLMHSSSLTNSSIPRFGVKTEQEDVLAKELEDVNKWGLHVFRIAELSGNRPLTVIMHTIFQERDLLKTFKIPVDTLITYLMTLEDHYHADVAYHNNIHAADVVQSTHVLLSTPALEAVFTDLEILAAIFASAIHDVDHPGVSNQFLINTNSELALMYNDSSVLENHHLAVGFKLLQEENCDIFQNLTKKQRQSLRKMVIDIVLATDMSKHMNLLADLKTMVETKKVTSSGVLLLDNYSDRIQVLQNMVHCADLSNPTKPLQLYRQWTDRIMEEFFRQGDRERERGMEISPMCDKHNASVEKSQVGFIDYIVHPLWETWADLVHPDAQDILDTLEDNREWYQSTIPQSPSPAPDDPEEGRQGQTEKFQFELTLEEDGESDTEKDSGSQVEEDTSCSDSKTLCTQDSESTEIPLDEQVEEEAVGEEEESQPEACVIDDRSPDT
Procedure: as §1, §2, §3, §4, §5

SMILES	PDE4 A1 inhibitory effect at 20 nM (PDE4A1A)	PDE4 B1 inhibitory effect at 20 nM (PDE4B1)	PDE4 D2 inhibitory effect at 20 nM (PDE4D2)	IC50 (PDE4D2; read-out: PDE4 D2 inhibitory activity (IC50 value))	inhibitory activity against PDE4A1A compared with Apremilast and WX011 (PDE4A1A)	inhibitory activity against PDE4B1 compared with Apremilast and WX011 (PDE4B1)	inhibitory activity against PDE4D2 compared with Apremilast and WX011 (PDE4D2)
CCOc1nc([C@@H](CS(C)(=O)=O)n2c(=O)[nH]c3c(C)c(-c4cc(C)ccc4F)cnc32)ccc1OC [Ex. 38, (S)-6-(2-fluoro-5-methylphenyl)-3-(1-(6-ethoxy-5-methoxypyridin-2-yl)-2-(methylsulfonyl)ethyl)-7-methyl-1H-imidazo[4,5-b]pyridin-2(3H)-one]	+	+	+				
CCOc1nc(C(CS(C)(=O)=O)N2C(=O)c3csc(NC(C)=O)c3C2=O)ccc1OC (stereo not shown) [Ex. 224, N-(5-(1-(6-ethoxy-5-methoxypyridin-2-yl)-2-(methylsulfonyl)ethyl)-4,6-dioxo-5,6-dihydro-4H-thieno[3,4-c]pyrrol-1-yl)acetamide]	+	+	+				
CCOc1nc([C@@H](CS(C)(=O)=O)n2c(=O)n(C)c3cc(-c4cc(F)ccc4OC)cnc32)ccc1OC [Ex. 118, (S)-6-(5-fluoro-2-methoxyphenyl)-3-(1-(6-ethoxy-5-methoxypyridin-2-yl)-2-(methylsulfonyl)ethyl)-1-methyl-1H-imidazo[4,5-b]pyridin-2(3H)-one]	+	+	+				
CCOc1nc([C@H](CS(C)(=O)=O)n2c(=O)[nH]c3c(C)c(-c4cc(F)ccc4F)cnc32)ccc1OC [Ex. 30, (R)-6-(2,5-difluorophenyl)-3-(1-(6-ethoxy-5-methoxypyridin-2-yl)-2-(methylsulfonyl)ethyl)-7-methyl-1H-imidazo[4,5-b]pyridin-2(3H)-one]	−	−	−		significantly enhanced inhibitory activity	significantly enhanced inhibitory activity	significantly enhanced inhibitory activity
CCOc1nc([C@@H](CS(C)(=O)=O)n2c(=O)n(C)c3cc(-c4cccc(C)c4C)cnc32)ccc1OC [Ex. 104, (S)-6-(2,3-dimethylphenyl)-3-(1-(6-ethoxy-5-methoxypyridin-2-yl)-2-(methylsulfonyl)ethyl)-1-methyl-1H-imidazo[4,5-b]pyridin-2(3H)-one]	+	+	+				
CCOc1nc([C@@H](CS(C)(=O)=O)n2c(=O)n(C)c3cc(-c4ccc(F)cc4OC)ccc32)ccc1OC [Ex. 189, (S)-5-(4-fluoro-2-methoxyphenyl)-1-(1-(6-ethoxy-5-methoxypyridin-2-yl)-2-(methylsulfonyl)ethyl)-3-methyl-1H-benzo[d]imidazol-2(3H)-one]	+	+	+				
CCOc1nc([C@@H](CS(C)(=O)=O)n2c(=O)n(C)c3cc(-c4cc(C)ccc4F)cnc32)ccc1OC [Ex. 114, (S)-6-(2-fluoro-5-methylphenyl)-3-(1-(6-ethoxy-5-methoxypyridin-2-yl)-2-(methylsulfonyl)ethyl)-1-methyl-1H-imidazo[4,5-b]pyridin-2(3H)-one]	+	+	+				
CCOc1nc([C@H](CS(C)(=O)=O)N2C(=O)c3csc(NC(C)=O)c3C2=O)ccc1OC [Ex. 225, (R)—N-(5-(1-(6-ethoxy-5-methoxypyridin-2-yl)-2-(methylsulfonyl)ethyl)-4,6-dioxo-5,6-dihydro-4H-thieno[3,4-c]pyrrol-1-yl)acetamide]	−	−	−				
CCOc1nc([C@@H](CS(C)(=O)=O)n2c(=O)n(C)c3cc(-c4ccc(F)cc4)ccc32)ccc1OC [Ex. 137, (S)-1-(1-(6-ethoxy-5-methoxypyridin-2-yl)-2-(methylsulfonyl)ethyl)-3-methyl-5-(4-fluorophenyl)-1H-benzo[d]imidazol-2(3H) one]	+	+	+				
CCOC(=O)c1ccc2c(c1)[nH]c(=O)n2[C@H](CS(C)(=O)=O)c1ccc(OC)c(OCC)n1 [Ex. 212, (S)-ethyl 1-(1-(6-ethoxy-5-methoxypyridin-2-yl)-2-(methylsulfonyl)ethyl)-2-oxo-2,3-dihydro-1H-benzo[d]imidazole-5-carboxylate]	+	+	+				
CCOc1nc([C@H](CS(C)(=O)=O)N2Cc3cccc(NC(C)=O)c3C2=O)ccc1OC [Ex. 216, (R)—N-(2-(1-(6-ethoxy-5-methoxypyridin-2-yl)-2-(methylsulfonyl)ethyl)-3-oxoisoindolin-4-yl)acetamide]	+	+	+				
CCOc1nc([C@@H](CS(C)(=O)=O)n2c(=O)n(C)c3cc(-c4c(C)cccc4C)cnc32)ccc1OC [Ex. 106, (S)-6-(2,6-dimethylphenyl)-3-(1-(6-ethoxy-5-methoxypyridin-2-yl)-2-(methylsulfonyl)ethyl)-1-methyl-1H-imidazo[4,5-b]pyridin-2(3H)-one]	+	+	+				

More lines, main results first:

PDE4 A1 inhibitory effect at 20 nM (PDE4A1A)	PDE4 B1 inhibitory effect at 20 nM (PDE4B1)	PDE4 D2 inhibitory effect at 20 nM (PDE4D2)	IC50 (PDE4D2; read-out: PDE4 D2 inhibitory activity (IC50 value))	SMILES	inhibitory activity against PDE4A1A compared with Apremilast and WX011 (PDE4A1A)	inhibitory activity against PDE4B1 compared with Apremilast and WX011 (PDE4B1)	inhibitory activity against PDE4D2 compared with Apremilast and WX011 (PDE4D2)
−	−	−		CCOc1nc([C@H](CS(C)(=O)=O)n2c(=O)[nH]c3c(C)c(-c4ccccc4)cnc32)ccc1OC [Ex. 5, (R)-3-(1-(6-ethoxy-5-methoxypyridin-2-yl)-2-(methylsulfonyl)ethyl)-7-methyl-6-phenyl-1H-imidazo[4,5-b]pyridin-2(3H)-one]			
+	+	+		CCOc1nc([C@@H](CS(C)(=O)=O)n2c(=O)[nH]c3cc(-c4cccc(C)c4C)ccc32)ccc1OC [Ex. 166, (S)-5-(2,3-dimethylphenyl)-1-(1-(6-ethoxy-5-methoxypyridin-2-yl)-2-(methylsulfonyl)ethyl)-1H-benzo[d]imidazol-2(3H)-one]			
			2.8 nM	CCOc1nc([C@@H](CS(C)(=O)=O)n2c(=O)[nH]c3c(C)c(-c4ccccc4CC)cnc32)ccc1OC [Ex. 10, (S)-3-(1-(6-ethoxy-5-methoxypyridin-2-yl)-2-(methylsulfonyl)ethyl)-6-(2-ethylphenyl)-7-methyl-1H-imidazo[4,5-b]pyridin-2(3H)-one]	significantly enhanced inhibitory activity	significantly enhanced inhibitory activity	significantly enhanced inhibitory activity
+	+	+		CCOc1nc([C@@H](CS(C)(=O)=O)n2c(=O)[nH]c3cc(-c4ccccc4)cnc32)ccc1OC [Ex. 76, (S)-3-(1-(6-ethoxy-5-methoxypyridin-2-yl)-2-(methylsulfonyl)ethyl)-6-phenyl-1H-imidazo[4,5-b]pyridin-2(3H)-one]			
+	+	+		CCOc1nc([C@@H](CS(C)(=O)=O)n2c(=O)n(C)c3cc(-c4c(F)cccc4F)cnc32)ccc1OC [Ex. 89, (S)-6-(2,6-difluorophenyl)-3-(1-(6-ethoxy-5-methoxypyridin-2-yl)-2-(methylsulfonyl)ethyl)-1-methyl-1H-imidazo[4,5-b]pyridin-2(3H)-one]			
+	+	+		CCOc1nc([C@H](CS(C)(=O)=O)n2c(=O)[nH]c3cc(-c4ccc(F)cc4)ccc32)ccc1OC [Ex. 136, (R)-1-(1-(6-ethoxy-5-methoxypyridin-2-yl)-2-(methylsulfonyl)ethyl)-5-(4-fluorophenyl)-1H-benzo[d]imidazol-2(3H)-one]			
−	−	−		CCOc1nc([C@H](CS(C)(=O)=O)n2c(=O)[nH]c3c(C)c(-c4ccccc4)cnc32)ccc1OC(F)F [Ex. 62, (R)-3-(1-(5-(difluoromethoxy)-6-ethoxypyridin-2-yl)-2-(methylsulfonyl)ethyl)-7-methyl-6-phenyl-1H-imidazo[4,5-b]pyridin-2(3H)-one]			
